Holding throughout (type): cell-based
The target in one assay is T1, human CCR2 (Homo sapiens, UniProt P41597).
T1 construct: host or cells: Chem-1 cell line
T1 sequence (P41597 1-360 isoform P41597-2): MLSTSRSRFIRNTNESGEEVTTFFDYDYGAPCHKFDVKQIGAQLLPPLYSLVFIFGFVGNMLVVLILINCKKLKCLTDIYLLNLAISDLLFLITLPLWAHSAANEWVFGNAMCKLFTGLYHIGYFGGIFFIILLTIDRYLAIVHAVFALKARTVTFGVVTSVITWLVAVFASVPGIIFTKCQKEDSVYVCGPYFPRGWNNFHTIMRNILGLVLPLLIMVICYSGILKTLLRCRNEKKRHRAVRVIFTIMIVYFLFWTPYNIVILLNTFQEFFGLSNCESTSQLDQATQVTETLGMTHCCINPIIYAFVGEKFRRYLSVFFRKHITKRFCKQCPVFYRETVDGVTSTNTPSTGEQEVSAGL
As to the kind of experiment: Functional Ca2+ release test (B-1). The following applies: Chem-1 cell line transfected with human CCR2; 50% inhibition of the MCP-1 effect, MCP-1 at EC50 (about 5 nM); in some cases means of several determinations. The gist of the method:
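Inhibition of MCP-1-evoked Ca2+ release was measured over 120 s by fluorescence imaging in Fluo-4-loaded, human CCR2-transfected Chem-1 cells. Compounds, tested in 10-point 1:3.16 series, were added 10 min before agonist at its EC50 (typically about 5 nM). IC50 values were obtained by 4-parameter logistic fitting.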

Assay [1] addresses T2, murine CCR2 (Mus musculus, UniProt P51683).
T2 construct: host or cells: U2OS β-arrestin cell line
As to the kind of experiment: Functional β-arrestin recruiting test with human MCP-1 (B-2a). The following applies: U2OS β-arrestin cell line transfected with murine CCR2; agonist human MCP-1 at EC50 (about 3 nM); in some cases means of several determinations. How it is done: The antagonistic action of test substances on CCR2 was determined in a β-arrestin test. The PathHunter β-arrestin GPCR test system (DiscoveRx Corporation, Ltd.) is a cell-based functional method for detecting binding of β-arrestin to an activated receptor. The molecular basis is a […] complementation measured by the enzymatic conversion of a chemiluminescent substrate. The test cell used was a U2OS β-arrestin cell line transfected with murine CCR2 (93-0543C3, DiscoveRx Corporation, Ltd.).
The test substances were dissolved in dimethyl sulphoxide (DMSO) at a concentration of 10 mM and serially diluted with DMSO in steps of 1:3.16 for a 10-point dose/activity analysis. According to the desired test concentrations, the substances were pre-diluted in Tyrode with 2 mM CaCl2 and 0.05% BSA.
The cells, cultivated in MEM Eagle (supplemented with 10% FCS, 50 U/ml of penicillin, 50 μg/ml of streptomycin, 250 μg/ml of hygromycin and 500 μg/ml of geniticin), were sown at 2000 cells/25 μl in 384 well, μCLEAR/black cell culture plates from Greiner (#781092) and incubated at 37° C. for 24 h. The sowing medium consisted of Opti-MEM (supplemented with 1% FCS, 50 U/ml of penicillin and 50 μg/ml of streptomycin). The cells were pre-incubated for 10 min with 10 μl of the test substances diluted in buffer, and 10 μl of agonist solution [human MCP-1 (PeproTech, #300-04) in Tyrode with 0.05% BSA) were then added. The human MCP-1 was employed at the concentration which corresponds to the EC50 which had been determined in a preliminary test (usually about 3 nM). After 90 min of incubation at 37° C., the solution was removed, and recruitment of β-arrestin to CCR2 was detected with the aid of the PathHunter detection reagent (93-001, DiscoveRx Corporation, Ltd.) according to the instructions of the manufacturer. Luminescence was measured after an incubation time of 60 min using a proprietary luminescence imaging measuring instrument. The molar concentration of the test substance which caused 50% inhibition of the MCP-1 effect (IC50) was determined using a 4-parameter logistic function (Hill function).

Assay [2] deals with T2, murine CCR2. As to the kind of experiment: Functional β-arrestin recruiting test with murine MCP-1 (B-2b). Conditions: U2OS β-arrestin cell line transfected with murine CCR2; agonist murine MCP-1; in some cases means of several determinations. Summed up:
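In a PathHunter β-galactosidase complementation assay, U2OS cells expressing murine CCR2 were preincubated 10 min with compound (10-point, 1:3.16 dilutions), then challenged with murine MCP-1 at its predetermined EC50 for 90 min at 37 °C. Luminescence was read after 60 min, and IC50 was fitted with a 4-parameter Hill function.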
(Arrestin recruitment assays detect the binding of arrestin to an activated receptor.)

T2 sequence (P51683 whole entry): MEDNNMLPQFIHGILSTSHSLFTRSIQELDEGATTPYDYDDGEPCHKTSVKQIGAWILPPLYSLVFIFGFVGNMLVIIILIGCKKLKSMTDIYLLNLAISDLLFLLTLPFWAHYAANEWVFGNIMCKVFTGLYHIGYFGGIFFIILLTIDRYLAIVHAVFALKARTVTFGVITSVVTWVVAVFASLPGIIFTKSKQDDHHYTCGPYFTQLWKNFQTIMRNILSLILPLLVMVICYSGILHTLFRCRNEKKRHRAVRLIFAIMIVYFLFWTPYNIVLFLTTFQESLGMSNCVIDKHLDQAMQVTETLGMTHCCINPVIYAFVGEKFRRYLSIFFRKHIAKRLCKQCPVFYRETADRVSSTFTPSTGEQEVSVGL

Turning to `O=c1[nH]c(-c2nc(C(F)(F)F)c(Oc3ccc(Cl)c(Cl)c3)c(=O)[nH]2)ns1` [Example 86, 5-(3,4-Dichlorophenoxy)-2-(5-oxo-4,5-dihydro-1,2,4-thiadiazol-3-yl)-6-(trifluoromethyl)pyrimidin-4(3H)-one], the IC50 is 0.0077 µM against human CCR2 and 0.1 µM at murine CCR2 [1].
For `O=c1[nH]c(Cc2ccno2)nc(C(F)(F)F)c1Cc1ccc(Cl)c(Cl)c1` [Example 96, 5-(3,4-dichlorobenzylylmethyl)-6-(trifluoromethyl)pyrimidin-4(3H)-one] the same measures were 0.03 µM and 0.16 µM.
For `Cn1ncc(-c2nc(C(F)(F)F)c(Cc3ccc(Cl)c(Cl)c3)c(=O)[nH]2)c1N` [Example 61, 2-(5-amino-1-methyl-1H-pyrazol-4-yl)-5-(3,4-dichlorobenzyl)-6-(trifluoromethyl)pyrimidin-4(3H)-one] the same measures were 0.036 µM and 0.22 µM.
For `COc1cc(-c2nc(C(F)(F)F)c(Cc3ccc(Cl)c(Cl)c3)c(=O)[nH]2)ccn1` [Example 29, 5-(3,4-dichlorobenzyl)-2-(2-methoxypyridin-4-yl)-6-(trifluoromethyl)pyrimidin-4(3H)-one] the same measures were 0.092 µM and 2.6 µM.
On to `O=c1[nH]c(-c2cn[nH]c2)nc(C(F)(F)F)c1Oc1ccc(Cl)c(Cl)c1` [Example 66, 5-(3,4-dichlorophenoxy)-2-(1H-pyrazol-4-yl)-6-(trifluoromethyl)pyrimidin-4(3H)-one], for which the results for the IC50 against human CCR2 and at murine CCR2 [1] were 0.0044 µM and 0.11 µM, respectively.
The like results for `O=c1[nH]c(-c2ccncc2)nc(C(F)(F)F)c1Cc1ccc(Cl)c(Cl)c1` [Example 28, 5-(3,4-dichlorobenzyl)-2-(pyridin-4-yl)-6-(trifluoromethyl)pyrimidin-4(3H)-one] were, in that order, 0.049 µM and 1 µM.
The like results for `O=c1[nH]c(Nc2cn[nH]c2)nc(C(F)(F)F)c1Oc1ccc(Cl)c(C(F)(F)F)c1` [Example 104, 5-[4-Chloro-3-(trifluoromethyl)phenoxy]-2-(1H-pyrazol-4-ylamino)-6-(trifluoromethyl)pyrimidin-4(3H)-one] were, in that order, 0.0094 µM and 0.16 µM.
The like results for `O=c1[nH]nc(Cc2nc(C(F)(F)F)c(Cc3ccc(Cl)c(Cl)c3)c(=O)[nH]2)[nH]1` [Example 90, 5-(3,4-Dichlorobenzyl)-2-[(5-oxo-4,5-dihydro-1H-1,2,4-triazol-3-yl)methyl]-6-(trifluoromethyl)pyrimidin-4(3H)-one] were, in that order, 0.058 µM and 0.62 µM.
For the molecule `Nc1ncnn1-c1nc(C(F)(F)F)c(Oc2ccc(Cl)c(Cl)c2)c(=O)[nH]1` [Example 48, 2-(5-Amino-1H-1,2,4-triazol-1-yl)-5-(3,4-dichlorophenoxy)-6-(trifluoromethyl)pyrimidin-4(3H)-one], the IC50 was 0.0042 µM against human CCR2 and 30 µM on murine CCR2 [1].
Turning to `O=c1[nH]c(-c2ccc(Cl)cn2)nc(C(F)(F)F)c1Cc1ccc(Cl)c(Cl)c1` [Example 22, 2-(5-chloropyridin-2-yl)-5-(3,4-dichlorobenzyl)-6-(trifluoromethyl)pyrimidin-4(3H)-one], the IC50 against human CCR2 stood at 0.007 µM; on murine CCR2 [1], 0.4 µM.
The like results for `O=c1[nH]c(CC2CCOCC2)nc(C(F)(F)F)c1Cc1ccc(Cl)c(Cl)c1` [Example 171] were, in that order, 0.4 µM and 1 µM.
With `COc1cccc(Nc2nc(C(F)(F)F)c(Oc3ccc(Cl)c(C(F)(F)F)c3)c(=O)[nH]2)n1` [Example 100, 5-[4-Chloro-3-(trifluoromethyl)phenoxy]-2-[(6-methoxypyridin-2-yl)amino]-6-(trifluoromethyl)pyrimidin-4(3H)-one], the values for the IC50 against human CCR2 and at murine CCR2 [1] were 0.065 µM and 0.92 µM, respectively.
For `O=c1[nH]c(-c2ncc(F)cc2F)nc(C(F)(F)F)c1Cc1ccc(Cl)c(Cl)c1` [Example 18, 5-(3,4-dichlorobenzyl)-2-(3,5-difluoropyridin-2-yl)-6-(trifluoromethyl)pyrimidin-4(3H)-one] the same measures were 0.014 µM and 0.14 µM.
The like results for `Cc1noc(Cc2nc(C(F)(F)F)c(Cc3ccc(Cl)c(Cl)c3)c(=O)[nH]2)n1` [Example 91, 5-(3,4-Dichlorobenzyl)-2-[(3-methyl-1,2,4-oxadiazol-5-yl)methyl]-6-(trifluoromethyl)pyrimidin-4(3H)-one] were, in that order, 0.022 µM and 0.27 µM.
The like results for “5-(3,4-dichlorobenzyl-2-(2-methoxypyridin-3-yl)-6-(trifluoromethyl)pyrimidin-4(3H)-one [Example 41]” were, in that order, 0.0048 µM and 0.41 µM.
As to `Cn1nc(Cc2nc(C(F)(F)F)c(Cc3ccc(Cl)c(Cl)c3)c(=O)[nH]2)[nH]c1=O` [Example 263, 5-(3,4-Dichlorobenzyl)-2-[(1-methyl-5-oxo-4,5-dihydro-1H-1,2,4-triazol-3-yl)methyl]-6-(trifluoromethyl)pyrimidin-4(3H)-one], the IC50 against human CCR2 was found to be 0.18 µM; at murine CCR2 [1], 0.68 µM.
Turning to `O=C1NCCN1c1nc(C(F)(F)F)c(Cc2ccc(Cl)c(Cl)c2)c(=O)[nH]1` [Example 111, 5-(3,4-Dichlorobenzyl)-2-(2-oxoimidazolidin-1-yl)-6-(trifluoromethyl)pyrimidin-4(3H)-one], the IC50 was 0.059 µM at human CCR2 and 0.36 µM at murine CCR2 [1].
For the molecule `O=c1[nH]c(-c2cc(O)ccn2)nc(C(F)(F)F)c1Oc1ccc(Cl)c(Cl)c1` [Example 32, 5-(3,4-dichlorophenoxy)-2-(4-hydroxypyridin-2-yl)-6-(trifluoromethyl)pyrimidin-4(3H)-one], the IC50 at human CCR2 turned out to be 0.051 µM; at murine CCR2 [1], 1.1 µM.
Turning to `O=c1[nH]c(-c2ncccc2-c2ccccc2)nc(C(F)(F)F)c1Oc1ccc(Cl)c(C(F)(F)F)c1` [Example 188, 5-[4-chloro-3-(trifluoromethyl)phenoxy]-2-(3-phenylpyridin-2-yl)-6-(trifluoromethyl)pyrimidin-4(3H)-one], the results for the IC50 at murine CCR2 [2] and against human CCR2 were 0.828 µM and 0.0015 µM, respectively.
For `COc1cccnc1-c1nc(C(F)(F)F)c(Oc2ccc(Cl)c(C)c2)c(=O)[nH]1` [Example 194, 5-(4-chloro-3-methylphenoxy)-2-(3-methoxypyridin-2-yl)-6-(trifluoromethyl)pyrimidin-4(3H)-one] the same measures were 0.059 µM and 0.0003 µM.
For `Cc1cc(Oc2c(C(F)(F)F)nc(-c3ncccc3Cl)[nH]c2=O)ccc1Cl` [Example 197, 5-(4-chloro-3-methylphenoxy)-2-(3-chloropyridin-2-yl)-6-(trifluoromethyl)pyrimidin-4(3H)-one] the same measures were 0.083 µM and 0.0013 µM.
The like results for `O=c1[nH]c(-c2ncccc2C(F)(F)F)nc(C(F)(F)F)c1Oc1ccc(Cl)c(C(F)(F)F)c1` [Example 186, 5-[4-chloro-3-(trifluoromethyl)phenoxy)-6-(trifluoromethyl)-2-[3-(trifluoromethyl)pyridin-2-yl]pyrimidin-4(3H)-one] were, in that order, 0.513 µM and 0.0048 µM.
Take `CC(C)(C)Sc1cccnc1-c1nc(C(F)(F)F)c(Oc2ccc(Cl)c(Cl)c2)c(=O)[nH]1` [Example 189]: the results for the IC50 on murine CCR2 [2] and against human CCR2 were 1.03 µM and 0.053 µM, respectively.
For `O=c1[nH]c(-c2nscc2O)nc(C(F)(F)F)c1Oc1ccc(Cl)c(C(F)(F)F)c1` [Example 239], the half-maximal inhibitory concentration (IC50) worked out at 0.089 µM at murine CCR2 [2] and 0.0026 µM against human CCR2.

The term IC50 denotes the concentration that inhibits the measured activity by half. Lower therefore signals higher potency.

These data come from patent publication US20160237059A1, “HETEROCYCLIC SUBSTITUTED TRIFLUOROMETHYL PYRIMIDINONES AND THEIR USE” (BAYER PHARMA AKTIENGESELLSCHAFT, priority 2013, published 2016).
